Laboratory results taken from patent US20260166021A1, “POLYMORPHIC FORMS OF A SOLUBLE EPOXIDE HYDROLASE INHIBITOR AND FORMULATIONS THEREOF” (EicOsis, LLC, priority 2022, published 2026).

Experiments:
Assay type in all cases: physicochemical
[1] = Excipient stability analyses (HPLC impurities)
Description: For the excipient stability analyses, approximately 10-20 mg Form D was incubated in PEG400, propylene glycol, D-a-Tocopherol polyethylene glycol 1000 succinate (Vitamin E TPGS), Gelucire® 44/14, hydrogenated castor oil, glyceryl caprylate/caprate(Capmul® MCM), ethoxylated solubilizers (Kolliphor® HS 15, Kolliphor® EL), nonionic surfactant (Labrasol), and diethylene glycol monoethyl ether (Transcutol® HP).

[2] = Chemical stability in pH media (HPLC impurities)
Description: For the pH stability analyses, approximately 2-3 mg Form D was incubated in 1.0 mL of aqueous pH 1.0 (0.1 M HCl), pH 6.8 (water adjusted using 0.1 M NaOH and 0.1 M HCl), and pH 10.0 solutions.

[3] = Thermal gravimetric analysis (TGA); settings: below 150° C.
Description: Thermal gravimetric analyses were performed on each sample “as is.” Unless otherwise noted, samples were weighed in an alumina crucible and analyzed from 30-350° C. at 10° C./min.
Form C weight loss at 39° C.-50° C. likely reflected methanol loss.

[4] = 50° C., Castor Oil, hydrogenated
[5] = Room Temperature, Capmul MCM, EP
[6] = Room Temperature, Capmul MCM, NF
[7] = Room Temperature, Castor Oil, hydrogenated*
[8] = Room Temperature, Gelucire 44/14
[9] = Room Temperature, Kolliphor HS-15
[10] = Room Temperature, Propylene glycol
[11] = Room Temperature, Vitamin E TPGS

## CC[C@H](C)C(=O)N1CCC(NC(=O)Nc2ccc(OC(F)(F)F)c(F)c2)CC1 [Form D, (S)-1-(3-fluoro-4-(trifluoromethoxy)phenyl)-3-(1-(2-methylbutanoyl)piperidin-4-yl)urea]
[1]; 50° C., Capmul MCM, EP
  Impurity, % (Day 1): None
  Impurity, % (Day 3): None
[1]; 50° C., Capmul MCM, NF
  Impurity, % (Day 1): None
  Impurity, % (Day 3): None
[1]; [4]
  Impurity, % (Day 1): None
  Impurity, % (Day 3): None
[1]; 50° C., Gelucire 44/14
  Impurity, % (Day 1): None
  Impurity, % (Day 3): None
[1]; 50° C., Kolliphor EL
  Impurity, % (Day 1): None
  Impurity, % (Day 3): None
[1]; 50° C., Kolliphor HS-15
  Impurity, % (Day 1): None
  Impurity, % (Day 3): None
[1]; 50° C., Labrasol
  Impurity, % (Day 1): None
  Impurity, % (Day 3): None
[1]; 50° C., PEG 400
  Impurity, % (Day 1): None
[1]; 50° C., Propylene glycol
  Impurity, % (Day 1): None
  Impurity, % (Day 3): None
[1]; 50° C., Transcutol
  Impurity, % (Day 1): None
  Impurity, % (Day 3): None
[1]; 50° C., Vitamin E TPGS
  Impurity, % (Day 1): None
  Impurity, % (Day 3): None
[1]; PEG400, propylene glycol, Vitamin E TPGS, Gelucire 44/14, hydrogenated castor oil, Capmul MCM, Kolliphor HS 15, Kolliphor EL, Labrasol, Transcutol HP, 4 or 7 days, room temperature or 50° C., HPLC
  impurities after incubation in excipients: No impurities were observed
[1]; [5]
  Impurity, % (Day 1): None
  Impurity, % (Day 3): None
[1]; [6]
  Impurity, % (Day 1): None
  Impurity, % (Day 3): None
[1]; [7]
  Impurity, % (Day 1): None
  Impurity, % (Day 3): None
[1]; [8]
  Impurity, % (Day 1): None
  Impurity, % (Day 3): None
[1]; Room Temperature, Kolliphor EL
  Impurity, % (Day 1): None
  Impurity, % (Day 3): None
[1]; [9]
  Impurity, % (Day 1): None
  Impurity, % (Day 3): None
[1]; Room Temperature, Labrasol
  Impurity, % (Day 1): None
  Impurity, % (Day 3): None
[1]; Room Temperature, PEG 400
  Impurity, % (Day 1): None
[1]; [10]
  Impurity, % (Day 1): None
  Impurity, % (Day 3): None
[1]; Room Temperature, Transcutol
  Impurity, % (Day 1): None
  Impurity, % (Day 3): None
[1]; [11]
  Impurity, % (Day 1): None
  Impurity, % (Day 3): None
[2]; 50° C., pH 1.0
  Impurity, % (Day 4): None Detected
  Impurity, % (Day 7): None Detected
[2]; 50° C., pH 6.8
  Impurity, % (Day 4): None Detected
  Impurity, % (Day 7): None Detected
[2]; 50° C., pH 10.0
  Impurity, % (Day 4): None Detected
  Impurity, % (Day 7): None Detected
[2]; Room Temperature, pH 1.0
  Impurity, % (Day 4): None Detected
  Impurity, % (Day 7): None Detected
[2]; Room Temperature, pH 6.8
  Impurity, % (Day 4): None Detected
  Impurity, % (Day 7): None Detected
[2]; Room Temperature, pH 10.0
  Impurity, % (Day 4): None Detected
  Impurity, % (Day 7): None Detected
[2]; aqueous pH 1.0, pH 6.8, pH 10.0, 4 or 7 days, room temperature or 50° C.
  impurities after incubation in pH media: No impurities were detectable
[3]
  TGA: wt change: No wt change below
